The values that follow come from ChEMBL document CHEMBL6177938, “Semisynthetic phytochemicals in cancer treatment: a medicinal chemistry perspective” (RSC Med Chem, 2024).

Assay [1] has as its system HepG2. Briefly: Cytotoxicity against human HepG2 cells. The assay is classed as functional, cell-based.
The test system of assay [2] is MCF7. As to the kind of experiment: Cytotoxicity against human MCF7 cells. Format: functional, cell-based.
The subject of the next assay is A-375. Briefly: Antiproliferative activity against human A-375 cells assessed as reduction in cell growth incubated for 48 hrs by MTT assay. The assay is classed as functional, cell-based. The following applies: A-375, 48 h.
Another assay has as its system MeWo. As to the kind of experiment: Antiproliferative activity against human MeWo cells assessed as reduction in cell growth incubated for 48 hrs by MTT assay. The assay is classed as functional, cell-based. A general note: Tetrazolium assays rely on reduction of a dye to a coloured formazan, in cell work by metabolically active cells.
For assay [3], the system named is HCT-116. As to the kind of experiment: Cytotoxicity against human HCT-116 cells assessed as reduction in cell viability incubated for 48 hrs by SRB assay. The assay is classed as functional, cell-based. The following applies: HCT-116, 48 h. A general note: The SRB assay estimates cell density from bound dye.
Assay [4] concerns A549. Briefly: Cytotoxicity against human A549 cells assessed as reduction in cell growth incubated for 48 hrs by MTT assay. The assay is classed as functional, cell-based. The following applies: A549, 48 h.
A further assay has as its system SK-BR-3. Briefly: Antiproliferative activity against human SK-BR-3 cells assessed as reduction in cell viability incubated for 24 hrs by alamar blue assay. Format: functional, cell-based. The following applies: SK-BR-3, 24 h. A general note: Resazurin is reduced to fluorescent resorufin, in cell work by metabolically active cells.
A further assay deals with KYSE-70 cell line. Briefly: Cytotoxicity against human KYSE-70 cells assessed as reduction in cell viability incubated for 72 hrs by MTS assay. Format: functional, cell-based. As to conditions: KYSE-70, 72 h.
In another assay the test system is KYSE-270. As to the kind of experiment: Cytotoxicity against human KYSE-270 cells assessed as reduction in cell viability incubated for 72 hrs by MTS assay. Format: functional, cell-based. The following applies: KYSE-270, 72 h.
For assay [5], the system named is MCF7. Briefly: Cytotoxicity against human MCF7 cells assessed as reduction in cell viability incubated for 48 hrs by MTT assay. Format: functional, cell-based. As to conditions: MCF7, 48 h.
In assay [6] the test system is MCF7. Briefly: Inhibition of colony formation in human MCF7 cells at 100 microM measured after 72 hrs by crystal violet staining based analysis relative to control. Format: functional.
The subject of assay [7] is HL-60. Briefly: Growth inhibition of human HL-60 cells. Format: functional.
The test system of another assay is SK-OV-3. As to the kind of experiment: Antiproliferative activity against human SK-OV-3 cells assessed as reduction in cell viability incubated for 48 hrs by MTT assay. Format: functional, cell-based. As to conditions: SK-OV-3, 48 h.
The next assay has as its system A2780. As to the kind of experiment: Antiproliferative activity against human A2780 cells assessed as reduction in cell viability incubated for 48 hrs by MTT assay. Format: functional, cell-based. The following applies: A2780, 48 h.
In assay [8] the test system is HCT-116. Briefly: Antiproliferative activity against human HCT-116 cells assessed as reduction in cell viability incubated for 24 hrs by MTT assay. The assay is classed as functional, cell-based. The following applies: HCT-116, 24 h.
The subject of assay [9] is HL-60. As to the kind of experiment: Cytotoxicity against human HL-60 cells assessed as reduction in cell growth incubated for 72 hrs by MTT assay. Format: functional, cell-based. The following applies: HL-60, 72 h.
For a further assay, the system named is PC-3. Briefly: Cytotoxicity against human PC-3 cells assessed as reduction in cell growth incubated for 72 hrs by MTT assay. The assay is classed as functional, cell-based. As to conditions: PC-3, 72 h.
Assay [10] has as its system HepG2. Briefly: Cytotoxicity against human HepG2 cells assessed as reduction in cell growth incubated for 72 hrs by MTT assay. Format: functional, cell-based. The following applies: HepG2, 72 h.
Another assay relates to SF-295. Briefly: Cytotoxicity against human SF-295 cells assessed as reduction in cell growth incubated for 72 hrs by MTT assay. The assay is classed as functional, cell-based. The following applies: SF-295, 72 h.
The test system of assay [11] is HCT-116. Briefly: Cytotoxicity against human HCT-116 cells assessed as reduction in cell growth incubated for 72 hrs by MTT assay. The assay is classed as functional, cell-based. The following applies: HCT-116, 72 h.
Assay [12] is described as follows: Selectivity index, ratio of IC50 for inhibition of CYP1B1 (unknown origin) to IC50 for inhibition of CYP1A1 (unknown origin).
Another assay concerns the target Cytochrome P450 1A1 (Homo sapiens, UniProt P04798). Briefly: Inhibition of CYP1A1 (unknown origin) expressed in HEK293 cells. The assay is classed as ADME, cell-based.
The subject of assay [13] is A549. Briefly: Antiproliferative activity against human A549 cells assessed as reduction in cell viability measured for 48 hrs by WST-1 assay. Format: functional, cell-based. As to conditions: A549, 48 h.
Another assay deals with HT-29. Briefly: Antiproliferative activity against human HT-29 cells assessed as reduction in cell viability measured for 48 hrs by WST-1 assay. Format: functional, cell-based. The following applies: HT-29, 48 h.
In assay [14] the test system is HeLa. Briefly: Antiproliferative activity against human Hela cells assessed as reduction in cell viability measured for 48 hrs by WST-1 assay. The assay is classed as functional, cell-based.
Assay [15] deals with MCF7. As to the kind of experiment: Antiproliferative activity against human MCF7 cells assessed as reduction in cell viability measured for 48 hrs by WST-1 assay. Format: functional, cell-based. The following applies: MCF7, 48 h.
For the next assay, the system named is MOLT-4. As to the kind of experiment: Antiproliferative activity against human MOLT-4 cells assessed as reduction in cell viability measured for 48 hrs by WST-1 assay. The assay is classed as functional, cell-based. As to conditions: MOLT-4, 48 h.
For the next assay, the system named is SK-MEL-28. As to the kind of experiment: Cytotoxicity against human SK-MEL-28 cells assessed as reduction in cell growth incubated for 24 hrs by MTT assay. The assay is classed as functional.
In assay [16] the test system is HeLa. Briefly: Antiproliferative activity against human HeLa cells assessed as reduction in cell viability incubated for 72 hrs by MTT assay. The assay is classed as functional, cell-based.
Assay [17] has as its system MCF7. As to the kind of experiment: Cytotoxicity against human MCF7 cells assessed as reduction in cell viability. Format: functional, cell-based.
In a further assay the test system is Calu-3. As to the kind of experiment: Cytotoxicity against human Calu-3 cells assessed as reduction in cell viability. Format: functional, cell-based.
Assay [18] relates to MCF7. Briefly: Cytotoxicity against human MCF7 cells assessed as reduction in cell growth incubated for 72 hrs by MTT assay. Format: functional, cell-based. The following applies: MCF7, 72 h.

Chain of Cytochrome P450 1A1 (P04798 whole entry): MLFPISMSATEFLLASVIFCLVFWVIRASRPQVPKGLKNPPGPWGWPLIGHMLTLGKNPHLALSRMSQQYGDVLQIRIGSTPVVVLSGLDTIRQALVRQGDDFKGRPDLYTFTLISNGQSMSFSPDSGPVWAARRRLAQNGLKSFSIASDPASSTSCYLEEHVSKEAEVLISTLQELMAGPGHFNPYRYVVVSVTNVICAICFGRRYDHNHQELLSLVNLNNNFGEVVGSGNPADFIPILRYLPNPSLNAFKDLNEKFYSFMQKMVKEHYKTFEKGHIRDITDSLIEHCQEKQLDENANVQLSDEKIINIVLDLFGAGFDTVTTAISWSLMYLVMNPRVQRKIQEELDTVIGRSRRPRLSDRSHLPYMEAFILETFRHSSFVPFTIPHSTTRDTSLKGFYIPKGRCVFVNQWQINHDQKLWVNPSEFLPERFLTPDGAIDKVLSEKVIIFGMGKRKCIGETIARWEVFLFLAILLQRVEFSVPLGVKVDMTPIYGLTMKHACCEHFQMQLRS

In general, IC50 refers to the concentration that inhibits the measured activity by half. Turning to `C/C(=N\NC(=O)c1ccc(O)cc1)c1ccc(NC(=O)Cn2c(=O)c3c(ncn3C)n(C)c2=O)cc1`, the IC50 in the assay on HepG2 [1] stood at 0.22 µM; in the assay on MCF7 [2], 0.42 µM.
Consider `CC1(C)CC[C@]2(C(=O)N3CCOCC3)CC[C@]3(C)C(=CC[C@@H]4[C@@]5(C)CC/C(=N\OC(=O)CBr)C(C)(C)[C@@H]5CC[C@]43C)[C@@H]2C1`, for which the concentration for half-maximal inhibition (IC50) with A-375 and in the assay on MeWo was 100 µM in each case.
For `C[C@H]1CC[C@@H]2[C@@H](OC(=O)[C@]23C[C@H]2CCCN2C32C(=O)c3ccccc3C2=O)[C@]2(C)C(=O)C=C[C@@]12O`, in the assay with HCT-116 [3], the half-inhibitory concentration (IC50) worked out at 5 µM.
For `COc1ccc(CC(=O)OCC2=CC[C@@H]3[C@](C)(CO)[C@H](O)CC[C@@]3(C)[C@@H]2/C=C/C2=CCOC2=O)cc1`, in the assay with A549 [4], the half-maximal inhibitory concentration (IC50) stood at 3.5 µM.
Regarding `COc1ccc2c(CCCc3ccc(Cl)cc3Cl)c3[n+](cc2c1OC)CCc1cc2c(cc1-3)OCO2`, the half-maximal inhibitory concentration (IC50) in the assay on SK-BR-3 was 6.3 µM.
Regarding `CCCCCCCCCCCC(=O)O[C@H]1C(C)=C[C@]23C(=O)[C@@H](C=C(CO)[C@@H](O)[C@]12O)[C@H]1[C@@H](C[C@H]3C)C1(C)C`, the IC50 in the assay on KYSE-70 cell line amounted to 3.58 µM; in the assay with KYSE-270 it was 1.88 µM.
One may read the inhibition as the percentage by which the read-out fell short of the control. Higher therefore signals strong suppression. In the case of `C/C=C/c1ccc(OCc2ccc(Cl)cc2)c(OC)c1`, the IC50 with MCF7 [5] worked out at 6.59 µM. In addition, in the assay on MCF7 [6], the inhibition at 100 µM amounted to 87.5%.
In general, GI50 refers to the concentration giving 50% growth inhibition. Take `COc1cc(/C=C/c2cc(/C=C/c3ccc(O)c(OC)c3)n(-c3c(Cl)cccc3Cl)c(=O)n2)ccc1O`: in the assay on HL-60 [7], the GI50 was 2.64 µM.
Regarding `CC1=C(O)C(=O)C=C2C1=CC=C1[C@@]2(C)CC[C@@]2(C)[C@@H]3C[C@](C)(C(=O)N4CCN(C(C)C)CC4)CC[C@]3(C)CC[C@]12C`, the concentration for half-maximal inhibition (IC50) came out at 0.47 µM with SK-OV-3 and 0.87 µM in the assay with A2780.
For `CN1CCN(CCCOc2cc(-c3oc4cc(O)cc(O)c4c(=O)c3O)ccc2O)CC1`, the IC50 in the assay with HCT-116 [8] was 0.48 µM.
On to `CCC(=O)OCC(=O)[C@@]1(C)CC[C@H]2C(=C[C@@H]3OC(=O)[C@@]4(C)[C@@H]3[C@]23CC[C@]4(O)OC3)C1`, for which the IC50 was found to be 3.14 µM with HL-60 [9]; 3.2 µM with PC-3; 13.5 µM in the assay on HepG2 [10]; 3.59 µM in the assay with SF-295; 3.62 µM with HCT-116 [11].
With `COc1c2occc2c(OC)c2c(=O)cc(-c3ccc(F)c(Br)c3)oc12`, the Ratio IC50 in assay [12] turned out to be 170. Further, the IC50 on Cytochrome P450 1A1 was determined as 0.14 µM.
For the molecule `COc1c2c(cc3c1OCO3)[C@]13C=C[C@H](OC)C[C@H]1N(C2)C[C@H]3OC(=O)c1ccc(Cl)c([N+](=O)[O-])c1`, the IC50 is 0.8 µM with A549 [13]; 1.4 µM in the assay with HT-29; 0.7 µM in the assay on HeLa [14]; 0.6 µM in the assay with MCF7 [15]; 1.9 µM in the assay on MOLT-4.
A word on the CC50: it is the concentration that lowers cell viability or growth by half. Take `CC(=O)OCC1=C2[C@@H](OC(C)=O)C[C@@](C)(OC(C)=O)C(=O)CC[C@@]3(C)O[C@@H]3[C@@]2(OC(C)=O)OC1=O`: the cytotoxic concentration (CC50) in the assay on SK-MEL-28 is 3.1 µM.
In the case of `CCNC(=O)CC[C@H](NC(=O)c1cc2cc(Br)ccc2oc1=O)C(=O)OCC`, the IC50 with HeLa [16] came to 250 µM.
`Cn1c2ccccc2c(=O)c2c(OCCCOc3cc4c(c5c3c(=O)c3ccccc3n5C)C=CC(C)(C)O4)cc3c(c21)C=CC(C)(C)O3`: the half-maximal inhibitory concentration (IC50) with MCF7 [17] was found to be 13.2 µM; in the assay on Calu-3 it was 4.49 µM.
For the molecule `C[C@@H]1CC[C@H]2[C@@H](C)C(OC(=O)CCC(=O)O)O[C@@H]3O[C@@]4(C)CC[C@@H]1[C@]32OO4` (single isomer, unassigned), in the assay on MCF7 [18], the IC50 was 43.8 µM.
